Test results from patent publication US4602018A, “Condensed as-triazine derivatives” (Egyt Gyogyszevegyeszeti Gyar, priority 1983, dated 1986).
Where two headings read alike, the source gives them in different places.

Tests used:
Format in all cases: in vivo
mice = test: Acute toxicity on mice; conditions: p.o., 7 days observation, 10080 min
Description: (§1) The test is carried out on male and female white mice belonging to the CFLP strain and weighing 18-22 g. The test compound is administered orally and the animals are observed for a period of 7 days. In the groups for each dose half of the animals are male and the other half are female. The animals are kept in a plastic box (39×12×12 cm) on scrapings litter at room temperature. The mice receive standard fodder and tap water ad libitum. The toxicity data are determined by the method of Litchfield-Wilcoxon.
(§2) The test compound is administered in an aqueous solution.

rats = test: Acute toxicity on rats; conditions: p.o., 14 days observation, 20160 min
tetrabenazine ptosis [1] = test: Antagonism of tetrabenazine ptosis on mice, p.o.; conditions: for ED50: tetrabenazine 50 mg/kg i.p.
tetrabenazine ptosis [2] = test: Antagonism of tetrabenazine ptosis on rats, p.o.
Description: (3) ANTAGONISM OF TETRABENAZINE PTOSIS, ON MICE AND RATS, P.O. […] The results are evaluated as follows: on the basis of all the measured data an average ptosis is calculated for each group and the deviation from the average of the control group is expressed in percent (inhibition). The ED50 values are calculated from the data thus obtained.

reserpine ptosis = test: Antagonism of reserpine ptosis on rats, p.o.; conditions: for ED50: reserpine 2.5 mg./kg. s.c.
Description: The animals showing ptosis are counted until the effect decreases. The evaluation is carried out as described in connection with the previous ptosis test (test 3).

[3] = test system: aconitine-induced ECG changes; test: animal or person; conditions: rats
Description: The test is carried out according to the modified method of Marmo et al. The test animals are narcotized with ethyl urethane (1.2 g./kg. i.p.). Aconitine is administered intravenously in the form of a bolus injection in a dose of 75 μg./kg. The changes of ECG are followed in standard II outlet 5 minutes after the administration of aconitine. The changes observed are evaluated with the aid of a scale from 0 to 5 points. The test compound is administered either intravenously 2 minutes before the addition of aconitine, or orally 1 hour before the aconitine administration.

Acute toxicity on mice = conditions: mouse, in vivo, po, 7 days observation
Description: as §1, §2

carrageenin oedema = test: Antiinflammatory effect on rats (carrageenin paw oedema); conditions: for ED50: Rattus norvegicus, read-out: Oedema inhibitory effect ED50
Description: Into the planar surface of the hind leg of rats weighing 150-180 g. 0.1 ml. of 1% carrageenin is injected. The volume of the paw is determined before and 3 hours after the administration of the irritating agent with a plethysmometer. The animals are pre-treated with the test compound and the carrier (control), respectively, for an hour. Because of the different solubility properties Tween 80 as auxiliary agent is used.

tremorine-induced tremor = test: Antitremorine effect on mice
Description: 20 mg./kg. of tremorine are administered i.p. to mice whereupon after 45 minutes the induced characteristic tremor is registered. The test compounds are administered orally 1 hour before the addition of tremorine.

Acute toxicity on rats = conditions: rat, in vivo, po, 14 days observation
[4] = Rattus norvegicus, iv, i.v. 2 minutes before aconitine 75 μg./kg. i.v.
[5] = Rattus norvegicus, po, p.o. 1 hour before aconitine 75 μg./kg. i.v.
[6] = Mus musculus, po, read-out: ED50
[7] = Rattus norvegicus, po, read-out: ED50
[8] = 0.1 ml. of 1% carrageenin, 3 hours, pre-treated for an hour

In the case of `OC1(c2ccc(Cl)cc2)NC=N[n+]2ccc3ccccc3c21` (centres unmarked) [Compound C, 1-(4-chloro-phenyl)-1-hydroxy-1,2-dihydro-as-triazino[6,1-a]isoquinolinium-bromide], the LD50 (mice) is reported as 590 mg/kg, the LD50 (rats) is reported as “about 1030 mg/kg” and the Ther. index (tetrabenazine ptosis [1]) is reported as 203. The ED50 (tetrabenazine ptosis [1]) was 2.9 mg/kg, the ED50 (tetrabenazine ptosis [2]) was 5.4 mg/kg and the Ther. index (tetrabenazine ptosis [2]) was 191. For the same compound, the Ther. index (reserpine ptosis) was 49.0 and the ED50 (reserpine ptosis) was 21 mg/kg.

With `CCN(CC)CC(=O)Nc1c(C)cccc1C` [Lidocain, α-diethylamino-2,6-dimethyl-acetanilide, reference compound] the ED50 [3, 4] was 4 mg/kg, the ED50 [3, 5] was 120 mg/kg and the “Antiarrhythmial effect (in words)” value ([3]; i.v. and p.o.) was “inactive”. For the same compound, the “Antiarrhythmial effect (percent in parentheses)” value ([3]; p.o., at 120 mg./kg.) was 3.5%.

`CN(C)CCC=C1c2ccccc2CCc2ccccc21` [Amitriptyline, N,N-dimethyl-3-[dibenzo[a,d]-cycloheptadiene-5-ylidene]-propylamine, reference compound] gave an LD50 at 168 h (Acute toxicity on mice) of 225 mg/kg, an ED50 (tetrabenazine ptosis [1]; [6]) of 12 mg/kg and a Ther. index (tetrabenazine ptosis [2]) of 46. For the same compound, the Ther. index (reserpine ptosis) was 3.6 and the ED50 (reserpine ptosis; [7]) was roughly 140 mg/kg.

`Clc1ccc(-c2ncn[n+]3ccc4ccccc4c23)cc1` [Reference compound D, 1-(4-chloro-phenyl)-as-triazino[6,1-a]isochinolinium-bromide, reference compound] gave an LD50 at 168 h (Acute toxicity on mice) of 600 mg/kg, an ED50 (tetrabenazine ptosis [1]; [6]) of 3.2 mg/kg and a Ther. index (tetrabenazine ptosis [2]) of 179. For the same compound, the ED50 (tetrabenazine ptosis [2]; [7]) was 5.6 mg/kg, the Ther. index (reserpine ptosis) was 16.7 and the ED50 (reserpine ptosis; [7]) was roughly 60 mg/kg. The “Oedema inhibitory effect ED50” value (carrageenin oedema; [8]) was “no effect” and the “Antitremorine effect ED50” value (tremorine-induced tremor; p.o. 1 hour before tremorine 20 mg./kg. i.p.) was “inactive”.

Compound `CCCCC1C(=O)N(c2ccccc2)N(c2ccccc2)C1=O` [Phenylbutazon, 4-butyl-1,2-diphenyl-3,5-pyrazolidine-dione] has a Ther. index (carrageenin oedema) of 5.3 and an ED50 (carrageenin oedema; [8]) of roughly 90 mg/kg.

Compound `OC1(c2ccc(Cl)cc2)NC=N[n+]2ccc3ccccc3c21` (centres unmarked) [Compound A, 1-(4-chloro-phenyl)-1-hydroxy-1,2-dihydro-as-triazino[6,1-a]isoquinolinium-ethanesulfonate] has an LD50 at 168 h (Acute toxicity on mice) of 410 mg/kg, an LD50 at 336 h (Acute toxicity on rats) of 1300 mg/kg and a Ther. index (tetrabenazine ptosis [1]) of 1367. The ED50 (tetrabenazine ptosis [1]) was 0.3 mg/kg, the ED50 (tetrabenazine ptosis [2]) was 0.3 mg/kg and the Ther. index (tetrabenazine ptosis [2]) was 4333. For the same compound, the Ther. index (reserpine ptosis) was 92.8, the ED50 (reserpine ptosis; [7]) was 14 mg/kg and the ED50 [3, 4] was 0.9 mg/kg. The ED50 [3, 5] was 40 mg/kg, the Ther. index [3] was 32.5 and the Ther. index (carrageenin oedema) was 53.1. For the same compound, the ED50 (carrageenin oedema; [8]) was 24.5 mg/kg.

For `OC1(c2ccc(Cl)cc2)NC=N[n+]2ccc3ccccc3c21` (centres unmarked) [Compound B, 1-(4-chloro-phenyl)-1-hydroxy-1,2-dihydro-as-triazino[6,1-a]isoquinolinium-chloride], the LD50 (mice) was 560 mg/kg, the LD50 (rats) was “about 1100 mg/kg” and the Ther. index (tetrabenazine ptosis [1]) was 1867. For the same compound, the ED50 (tetrabenazine ptosis [1]) was 0.3 mg/kg, the ED50 (tetrabenazine ptosis [2]) was 1.0 mg/kg and the Ther. index (tetrabenazine ptosis [2]) was 1100. The Ther. index (reserpine ptosis) was 39.3, the ED50 (reserpine ptosis) was 28 mg/kg and the Ther. index [3] was 27.5. The ED50 ([3]; i.v. 2 minutes before aconitine 75 μg./kg. i.v.) was 1.6 mg/kg, the ED50 ([3]; p.o. 1 hour before aconitine 75 μg./kg. i.v.) was 30 mg/kg and the Ther. index (tremorine-induced tremor) was 93.3. The ED50 (tremorine-induced tremor; Mus musculus, po, p.o. 1 hour before tremorine 20 mg./kg. i.p.) was 6 mg/kg.
